The text below walks through data of article PMC10887108, “Novel Brain-Penetrant, Small-Molecule Tubulin Destabilizers for the Treatment of Glioblastoma” (Biomedicines, 2024).

≈ marks a conversion by molar mass, not a printed value. Where “and” joins values, the source holds several entries; their conditions need not be identical. Equal values may be shown once.

Series [1] is described as follows: Plasma pharmacokinetics after oral dosing. Format: in vivo, CD-1 mice. The note with it: mouse, 100 mg/kg oral, CD-1 male mice. As to the method:
Pharmacokinetic studies were carried out by DMPK at WuXi AppTec, Inc. (Cranbury, NJ, USA). The pharmacokinetics of RGN3067 were evaluated in three male CD-1 mice. RGN3067 formulated as a 10 mg/mL solution (20% DMSO, 80% PEG400: PVP 95:5) was administered by oral gavage at a dose of 100 mg/kg. Plasma samples were drawn at 0.5, 1, 2, 4, 6, 10 and 24 h. Samples were analyzed by LC-MS/MS. A calibration curve was established using Waters ACQUITY UPLC BEH C18 column and formic acid in water and formic acid in acetonitrile as mobile phase. Tolbutamide and labetalol were used as internal standards for LC-MS/MS analysis. Compound was detected using electrospray ionization (ESI) positive detection. Pharmacokinetic parameters were calculated using the PO-noncompartmental linear model in Phoenix WinNonlin software v8.3 (Certara, Princeton, NJ, USA).

Series [2] is described as follows: Brain pharmacokinetics after oral dosing. Format: in vivo. Particulars: 100 mg/kg oral, CD-1 mice, 1, 4 and 8 h. The procedure:
Brain pharmacokinetic studies were carried out by DMPK at WuXi AppTec, Inc. (Cranbury, NJ, USA). The brain penetrance of RGN3067 was evaluated in three male CD-1 mice. RGN3067 was formulated as a 10 mg/mL solution (20% DMSO, 80% PEG400: PVP 95:5) and administered by oral gavage at a dose of 100 mg/kg. Plasma and brain samples were collected at 1, 4, and 8 h. Samples were analyzed by LC-MS/MS. A calibration curve was established using Waters ACQUITY UPLC BEH C18 column and formic acid in water and formic acid in acetonitrile as mobile phase. Tolbutamide and labetalol were used as internal standards for LC-MS/MS analysis. Compound was detected using electrospray ionization (ESI) positive detection. Pharmacokinetic parameters were calculated using the PO-noncompartmental linear model in Phoenix WinNonlin software v8.3 (Certara, Princeton, NJ, USA).

Series [3] concerns GBM12 patient-derived GB cells. As to the kind of experiment: CellTiter-Glo viability assay, patient-derived GBM12 cells. Format: cell-based. The note with it: Homo sapiens, GBM12, 144 h, read-out: IC50 cell viability. As to the method: Short-term cultures of patient-derived cells GBM12, GBM15, GBM39 and GBM43 (used with permission Mayo Foundation) were seeded (1000 cells/well) in solid white Corning 384-well plates (Corning, NY, USA) and cultured overnight. Cells were treated with DMSO or RGN3067 in a 13-point dose response with a 1:3 serial dilution from an initial concentration of 100 μM. After 144 h, cell viability was measured using CellTiter-Glo (Promega, Madison, WI, USA). Data were normalized to DMSO control, and absolute IC50 values were calculated using GraphPad Prism 10 (San Diego, CA, USA).
On the technique in general: In ATP-based viability assays light output follows the ATP content of the culture.

Series [4] deals with colchicine binding pocket of β-tubulin in MCF-7 cells. As to the kind of experiment: EBI competition colchicine-binding site cellular assay. Format: cell-based, human. Particulars: MCF-7, compound 50 µM. As to the method:
(C) EBI competition assay in MCF-7 breast cancer cells. […] Total proteins were lysed and subjected to Western blot analysis for β-tubulin. […] GAPDH was employed as the loading control. (D) Quantification of the Western blot in (C). […] Data are plotted as mean ± SD from at least three independent experiments. Analysis between groups in (B) was performed using a one-way ANOVA with Tukey’s multiple comparison test.

The subject of another series is MDR1 (P-gp). As to the kind of experiment: MDR1-MDCK cellular permeability. Particulars: dog. Type of series: in vitro ADME, canine. The procedure: Cellular permeability was tested using the MDR1-MDCK (multidrug-resistant-1, Madin–Darby canine kidney) cell line. Donor solution was added to a 96-well plate (2 μL, 2 mM compound; 6 μL DMSO in 1992 μL of Hanks’ balanced salt solution [HBSS] buffer) and shaken at 1000 rpm for 10 min (final 0.4% DMSO). Transepithelial electrical resistance (TEER) values were used as a quality control check for monolayer integrity. At 3–5 days post-seeding, each MDCK II cell monolayer was tested to ensure the TEER value was ≥ 83 Ω⋅cm^2. The compound donor working solution was centrifuged (4000 rpm for 5 min) to remove any precipitated compound prior to loading donor chambers. Apical and basolateral plates were warmed at 37 °C for about 5 min prior to the initiation of transport (37 °C, 90 min).
Luciferin marker Lucifer Yellow (150 μL, 50 μM Lucifer Yellow in HBSS, pH 7.4) was added to the apical compartment, and transfer buffer (600 μL) was added to the receiver plate (basolateral compartment) and incubated at 37 °C for 60 min. Apical Lucifer Yellow concentrations for LYT0 and LYT60 were measured by a fluorometer (EX 485/EM 535 nm). Donor and receiver samples were analyzed by LC-MS. Metoprolol, enalapril, and quinidine were used as positive controls. The efflux ratio was calculated as the ratio of apparent permeability (basal-to-apical) and apparent permeability (apical-to-basal).

The target in series [5] is T1, Porcine tubulin (colchicine binding site) (Sus scrofa, UniProt P02554).
T1 construct: purchased Cytoskeleton, Inc. T240; host or cells: brain tissue (purified)
As to the kind of experiment: Colchicine competitive binding assay (fluorescence). The note with it: compound 50 µM, colchicine 10 μM, tubulin 20 μM.

In the next series the test system is U87 glioblastoma cells. As to the kind of experiment: Cell cycle analysis (propidium iodide flow cytometry). Type of series: cell-based, human. The note with it: U87, 5 µM, 48 h. As to the method: […] Cells were washed in ice-cold PBS, resuspended in 1 mL of ice-cold 70% ethanol, and fixed overnight at −20 °C. Cells were centrifuged and resuspended in PBS containing RNAse A at a final concentration of 0.5 mg/mL (MilliporeSigma 10109142001; Burlington, MA, USA) and propidium iodide at a final concentration of 0.04 mg/mL (Sigma-Aldrich P4170, St. Louis, MO, USA) for 1 h at 37 °C. Nuclear staining was analyzed using a BD FACSCanto II flow cytometer (BD Biosciences; Franklin Lakes, NJ, USA) to determine cell cycle distribution. Cell cycle analysis was performed using the BD FACSDiva software v8.0.
(In general: Flow cytometry measures light scatter and fluorescence of single cells or particles in a stream.)

Series [6] can be described thus: Kinetic solubility in phosphate buffer. Format: physicochemical. Particulars: 100 mM phosphate buffer, 1% DMSO. The procedure: Kinetic solubility was determined in phosphate buffer. The compound (4 µL, 10 mM DMSO) was added to the buffer (396 μL 100 mM phosphate buffer, final 1% DMSO) and shaken at 1000 rpm at RT for 1 h. Samples were filtered (Millipore MSSLBPC10; Burlington, MA, USA), the primary filtrate was discarded, and the subsequent filtrate was collected. The supernatant solution was diluted 10× with DMSO. Test samples (10 µL) and working standard curve samples were added to the stop solution (100 μL, containing internal standard) and water/0.1% FA (100 μL). Samples were analyzed by LC-MS/MS. Albendazole, propranolol, and 4,5-diphenylimidazole were used as positive controls.

Take `CO[C@H]1C[C@@H](C(=O)NC(=O)Nc2ccc(Oc3ccc(Cl)cn3)c(C)c2)C1` [RGN3067]: in series [1], the AUC (as a rule, the area under the concentration-time curve, a measure of exposure) amounted to 51200 ng·h/mL; the peak concentration (Cmax) (commonly the peak of the concentration-time curve) is 7810 ng/mL and 20 µM; the time of peak concentration (Tmax) (usually the time at which the peak concentration occurs) was 2 h; the half-life (as a rule, how long it takes for the measured level to halve) is 217 ± 116 min. Moreover, the “distribution in plasma and brain” value in series [2] is “equal distribution in plasma and brain at all time points”. In addition, the concentration for half-maximal inhibition (IC50) (usually the concentration needed to halve the response being measured) in series [3] was 148 nM. Further, in series [4], the “formation of the EBI–β-tubulin adduct” value is listed as “reduces the formation of the EBI–β-tubulin adduct”. For the same molecule, the efflux ratio (in general, a quotient of directional permeabilities that is used to spot active efflux) at 90 min, 2 µM in the series with MDR1 (P-gp) (Papp basal-to-apical / apical-to-basal) turned out to be 0.61. Further, the Papp at 90 min, 2 µM with MDR1 (P-gp) (read-out: apparent permeability coefficient) worked out at 22.7 ×10⁻⁶ cm/s. Further, in series [5], the “reduction of colchicine–tubulin fluorescence relative to control” value was 24%. Moreover, the “cells arrested at G2/M” value in the series on U87 glioblastoma cells is 73%. The solubility (kinetic) (commonly the concentration staying in solution when a stock, usually in DMSO, is diluted into the medium) at 1 h in series [6] was determined as 5.7 µM (≈ 2.22 µg/mL).
